The values that follow are results of earlier work, collected in patent publication US20150196506A1, “CHEWING GUM FORMULATIONS COMPRISING DAPOXETINE AND TADALAFIL” (Sanovell Ilac Sanayi Ve Ticaret Anonim Sirketi, priority 2012, published 2015).

The conditions of series [1]: similarly poorly dissolved in gastric juice.
The conditions of series [2]: following oral administration.

For `CN1CC(=O)N2[C@H](c3ccc4c(c3)OCO4)c3[nH]c4ccccc4c3C[C@@H]2C1=O` [Tadalafil, (6R-trans)-6-(1,3-benzodioxol-5-yl)-2,3,6,7,12,12a-hexahydro-2-methyl-pyrazino [1′,2′:1,6] pyrido[3,4-b]indole-1,4-dione], the solubility in water result in series [1] is recorded as “poorly soluble in water”.

Turning to `CN(C)[C@@H](CCOc1cccc2ccccc12)c1ccccc1` [dapoxetine], the “binding to plasma proteins” value in series [2] was “almost completely”.
